Results as given in paper PMC9862597, “Anti-Colorectal Cancer Effects of a Novel Camptothecin Derivative PCC0208037 In Vitro and In Vivo” (Pharmaceuticals, 2022).

Columns and labels:
LS180 cells = experiment: MTT cell viability assay, LS180; type: cell-based; conditions: Homo sapiens; LS180, MTT, 72 h, n = 3; read-out: IC50
Description: (§1) Cell viability was assessed using the MTT assay, as previously reported. Briefly, colorectal cancer cells (LS180, HCT116, CT-26, and HT-29 cells) were plated onto 96-well plates at 3000 cells per well and incubated overnight. […] Control cells were treated with DMSO at a final concentration of 0.1%. Cells were cultured with the compounds or medium for 72 h. The cells were then treated with MTT. The medium was then decanted, and DMSO was added and shaken until the color reaction was complete. The […] were read using a Molecular Devices SpectraMax M5 (San Jose, CA, USA) at OD570 nm. The half maximal inhibitory concentration (IC50) was calculated.

[1] = PCC0208037- and CPT-11-induced toxicity in mice; conditions: 50 mg/kg/day i.p. for four days
[2] = Pharmacokinetic study, single intravenous dose; conditions: for AUCinf / AUClast: n = 3
Description: Blood samples were collected at 0.083 h, 0.25 h, 0.5 h, 1 h, 2 h, 4 h, 8 h, and 12 h after administration. Plasma was prepared after centrifugation at 6000× g for 5 min and then stored at −20 °C for further analysis.

HCT116 cells = experiment: MTT cell viability assay, HCT116; type: cell-based; conditions: Homo sapiens, HCT-116; HCT116, MTT, 72 h, n = 3; read-out: IC50
Description: as §1

CT-26 cells = experiment: MTT cell viability assay, CT-26; type: cell-based; conditions: Mus musculus, CT26; CT-26, MTT, 72 h, n = 3
Description: as §1

LS180 xenograft tumor = experiment: Subcutaneous LS180 xenograft model; type: in vivo, nude mice; conditions: PCC0208037 5, 10, 20 mg/kg; CPT-11 10 mg/kg; i.v. once every 3 days
Description: To establish xenograft tumor models, RPMI 1640 and Matrigel were mixed at a 1:1 ratio. Colorectal cancer cells (LS180: 5 × 10^6 cells) were added to 0.1 mL of the mixture, and male nude mice were subcutaneously injected with colorectal cancer cells on the right side. […] Tumor volume and animal weight were measured every 3 days and continued until the end of the experiments. All mice were euthanized by cervical dislocation at the end of the experiment, and the xenograft tumors were removed and weighed.
Figure 8 Anti-tumor effect of PCC0208037 in the LS180 xenograft tumor model. (A) Representative tumors removed after the last treatment in each treatment group. (B) Body weight gain curves of mice bearing an LS180 xenograft tumor. (C) Tumor weights in the different groups of mice after 15 d of treatment.

HT-29 cells = experiment: MTT cell viability assay, HT-29; type: cell-based; conditions: Homo sapiens; HT-29, MTT, 72 h, n = 3
Description: as §1

recombinant Topo I = target: T1, recombinant Topo I (Homo sapiens, UniProt P11387); experiment: Topoisomerase I activity assay (DNA relaxation); type: biochemical; conditions: PCC0208037 100 and 10 nmol/L, SN-38 100 nmol/L, CPT-11 100 nmol/L; 30 min, 37 °C
T1 construct: purchased TopoGEN, Inc (Buena Vista, CO, USA) TG1018
T1 sequence (P11387 1-765): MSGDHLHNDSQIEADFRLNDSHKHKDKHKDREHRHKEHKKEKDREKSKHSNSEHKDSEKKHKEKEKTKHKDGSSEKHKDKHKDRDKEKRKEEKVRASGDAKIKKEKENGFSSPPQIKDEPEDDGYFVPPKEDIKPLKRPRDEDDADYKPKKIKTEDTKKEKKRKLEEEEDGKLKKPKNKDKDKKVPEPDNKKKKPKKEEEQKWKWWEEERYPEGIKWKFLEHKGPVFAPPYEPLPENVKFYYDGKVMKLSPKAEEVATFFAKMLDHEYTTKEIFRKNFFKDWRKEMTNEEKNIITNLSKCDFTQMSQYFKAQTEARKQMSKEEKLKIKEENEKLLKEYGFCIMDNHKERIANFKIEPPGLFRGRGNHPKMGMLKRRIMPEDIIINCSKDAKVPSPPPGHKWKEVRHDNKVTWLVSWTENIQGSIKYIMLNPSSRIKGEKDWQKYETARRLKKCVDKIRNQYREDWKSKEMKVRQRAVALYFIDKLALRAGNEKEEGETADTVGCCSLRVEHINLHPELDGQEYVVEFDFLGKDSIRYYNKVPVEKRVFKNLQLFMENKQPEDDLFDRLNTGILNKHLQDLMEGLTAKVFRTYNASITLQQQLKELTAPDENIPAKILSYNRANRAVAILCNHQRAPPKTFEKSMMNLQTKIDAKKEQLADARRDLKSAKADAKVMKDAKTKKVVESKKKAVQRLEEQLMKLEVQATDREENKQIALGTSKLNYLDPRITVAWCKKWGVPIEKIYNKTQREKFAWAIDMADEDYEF
Description: To determine whether PCC0208037 inhibited Topo I activity, a DNA relaxation assay was conducted. In this assay, supercoiled plasmid DNA was relaxed and nicked by recombinant Topo I, while no nicked DNA would be found when the Topo I enzyme was inhibited.
A Topoisomerase I Drug Screening Kit was used to detect the inhibitory activity of PCC0208037 against Topo I in the cell-free system. 1 IU Topo I and 250 ng of supercoiled plasmid DNA were pre-incubated with DMSO, PCC0208037 (100 nmol/L and 10 nmol/L), SN-38(100 nmol/L), or CPT (100 nmol/L) in a reaction buffer with a final volume of 20 μL and incubated for 30 min at 37 °C; then, the reaction was stopped by the addition of 2 ul of 10% SDS. Then, proteinase K was added to 50 ug/mL, incubated for 15 min at 37 °C, and 0.1 vol. of a loading buffer (0.25% bromophenol blue, 50% glycerol) was added. The supercoiled, relaxed, or nicked DNA was separated by 1% agarose gel in a 1 TAE (Tris-Acetate-EDTA) buffer. Ethidium bromide-stained agarose gel was photographed using Gel Doc XR.
Figure 4 Inhibition of Topo I activity by PCC0208037. […] Plasmid DNA was separated by an agarose gel and stained with ethidium bromide.

[3] = BALB/c, mouse, plasma, iv, 10 mg/kg
[4] = CPT-11 in plasma, 10 mg/kg CPT-11 i.v.
[5] = metabolite SN-38 in plasma after 10 mg/kg CPT-11 i.v.
[6] = metabolite SN-38 in plasma after 10.65 mg/kg PCC0208037 i.v.

Structure (SMILES) | IC50 (LS180 cells) | colorectal tissue histomorphological examination (H&E) ([1]; colon after 7 days) | diarrhea score ([1]; later stage of study, p < 0.05 on 7th day) | mortality ([1]; seven-day observation) | recovery of body weight and food intake decrease ([1]; seven-day observation) | Cmax [2, 3] | Tmax [2, 3] | AUCinf [2, 4] | AUClast [2, 4] | IC50 (HCT116 cells) | IC50 (CT-26 cells) | effect on body weight of tumor-bearing mice (LS180 xenograft tumor) | IC50 (HT-29 cells) | AUCinf [2, 5] | AUClast [2, 5] | AUCinf [2, 6] | AUClast [2, 6] | inhibition of Topo I activity (supercoiled plasmid DNA relaxation) (recombinant Topo I)
CCc1c2c(nc3ccc(OC(=O)N4CCC(N5CCCCC5)CC4)cc13)-c1cc3c(c(=O)n1C2)COC(=O)[C@]3(O)CC [CPT-11, Irinotecan] | 3.17 ± 0.58 µM | extensive colorectal tissue damage | higher in the CPT-11-treated mice than in the PCC0208037-treated mice | No animal died | no apparent trend of recovery was observed | 481 ± 112 ng/mL | 3.24 ± 2.19 h | 393.1 ± 64.4 H * ng/mL | 360.5 ±52.9 H * ng/mL | > 50 µM | > 50 µM | significant reduction in body weight | > 50 µM |  |  |  |  | 
CCc1c2c(nc3ccc(O)cc13)-c1cc3c(c(=O)n1C2)COC(=O)[C@]3(O)CC [SN-38] | 0.12 ± 0.01 µM |  |  |  |  |  |  |  |  | 3.58 ± 0.21 µM | 0.44 ± 0.66 µM |  | 0.35 ± 0.02 µM | 431.5 ± 62.5 H * ng/mL | 394.6 ± 46.32 H * ng/mL | 919.7 ± 176.1 H * ng/mL | 905.5 ± 173.7 H * ng/mL | Topo I activity was inhibited
